Reference: patent publication US20260055097A9, “NRF2 PROTEIN DEGRADERS” (Ganymede Oncology, Inc., priority 2022, published 2026)
Read-outs that look alike come from different tables or passages of the source.

What was measured:
[1] = test system: A549; assay: Cancer cell viability, A549 (CellTiter-Glo); format: cell-based; conditions: Homo sapiens, 72 h, A549 cells, 3 days, read-out: Cellular IC50 (μM) A549
Method: Representative Compounds of the Disclosure were tested in A549 (Vendor: ATCC; Cat #CCL-185; Description: lung, carcinoma) and/or LK-2 (Vendor: Riken; Cat #RCB1970; Description: lung, squamous cell carcinoma) cellular viability assays according to the following general protocol. • 1. Observed the cells under microscope. • 2. Aspirated the media and added 5 mL trypsin and incubate for 3 mins. • 3. Added 10 mL fresh media and harvested all the cells in to 15 mL tubes. • 4. Centrifuged the cells at 1000 rpm for 5 mins. • 5. Re-suspended the cells with 11 mL media and took 1 mL to determine the cell number and viability. • 6. Prepared cells suspension at 20 K/mL (A549) or 35 K/mL (LK-2) • 7. Seeded the cells into 96-well plate and incubated for overnight. • 8. […] After 3 days, took out the plates from the incubator and observed the cells under microscope. • 10. Passed a film at the bottom of the plates. • 11. Equilibrated the plate and its contents at room temperature for approximately 30 minutes. • 12. Thawed the CellTiter-Glo® Buffer and equilibrated to room temperature prior to use. • 13. Equilibrated the lyophilized CellTiter-Glo® Substrate to room temperature prior to use. • 14. Transferred 100 ml of CellTiter-Glo® Buffer into the amber bottle containing CellTiter-Glo® Substrate to reconstituted the lyophilized enzyme/substrate mixture. • 15. Mixed by gently vortexing, swirling or inverting the contents to obtain a homogeneous solution. • 16. Added 100 μL CellTiter-Glo® Reagent into each well • 17. Mixed contents for 15 minutes on an orbital shaker to induce cell lysis. • 18. Recorded luminescence with EnSpire machine. • 19. Passed the raw data into the file and analyzed the data with XLfit software.

[2] = target: T1, Nrf2 (Homo sapiens, UniProt Q16236); assay: Nrf2 degradation in A549 HiBiT-Nrf2 cells, Nano-Glo HiBiT lytic detection (HiBiT readout); format: cell-based; design: host or cells: A549 HiBiT-Nrf2 cells (engineered line bought from Promega)
T1 sequence (Q16236 1-605): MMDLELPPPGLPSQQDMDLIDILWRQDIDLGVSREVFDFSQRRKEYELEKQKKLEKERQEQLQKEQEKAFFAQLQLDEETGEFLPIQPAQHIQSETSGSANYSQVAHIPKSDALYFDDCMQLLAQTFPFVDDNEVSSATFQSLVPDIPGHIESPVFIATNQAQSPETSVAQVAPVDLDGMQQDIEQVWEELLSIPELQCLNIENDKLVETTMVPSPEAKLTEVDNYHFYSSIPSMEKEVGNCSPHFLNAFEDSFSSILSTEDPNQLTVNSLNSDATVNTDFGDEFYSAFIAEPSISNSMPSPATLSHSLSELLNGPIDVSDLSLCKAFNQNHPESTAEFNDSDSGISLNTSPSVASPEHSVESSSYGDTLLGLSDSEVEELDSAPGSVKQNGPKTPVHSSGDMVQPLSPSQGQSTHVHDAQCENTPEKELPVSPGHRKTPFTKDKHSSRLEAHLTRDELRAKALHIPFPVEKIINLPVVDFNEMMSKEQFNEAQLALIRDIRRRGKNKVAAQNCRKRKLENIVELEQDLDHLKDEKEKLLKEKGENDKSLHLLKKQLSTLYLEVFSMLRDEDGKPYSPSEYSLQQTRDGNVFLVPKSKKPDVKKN
Method: A549 HiBiT-Nrf2 cells (Promega, Cat. No. CS3023219) were seeded into 384-well plates at cell density of 5,000 cells/well in 40 μL of cell culture medium (Ham's F-12 Nutrient Mix supplemented with 10% FBS and 1% antibiotic-antimycotic).
The next day, cells were treated with representative Compounds of the Disclosure and incubated for 6 h and 20 h at 37° C., 5% CO2. Staurosporine was used as a control.
At the end of incubation Nrf2 degradation (HiBiT readout) and cell viability (CellTiter-Glo readout) were determined. For HiBiT readout, Nano-Glo HiBiT Reagent mix (Promega, Cat. No. N3050) was added to wells, plates were incubated 2 min on an orbital shaker and incubated at room temperature in the dark for additional 30 minutes. At the end of incubation luminescence was measured using ultrasensitive luminescence mode (Envision, Perkin Elmer).

[3] = 6 h, read-out: DC50 (nM) at 6 h
[4] = 20 h, read-out: DC50 (nM) at 20 h

Structure (SMILES) | IC50 [1] [µM] | DC50 [2, 3] [nM] | DC50 [2, 4] [nM]
Cc1cnccc1C(=O)N1CCc2cc(-c3nc(NC(=O)Cc4cccc(OCCCCCNc5cccc6c5C(=O)N(C5CCC(=O)NC5=O)C6=O)c4)sc3C)ccc21 (stereo not drawn) [compound 84, 2-(3-((5-((2-(2,6-dioxopiperidin-3-yl)-1,3-dioxoisoindolin-4-yl)amino)pentyl)oxy)phenyl)-N-(5-methyl-4-(1-(3-methylisonicotinoyl)indolin-5-yl)thiazol-2-yl)acetamide] | 0.046 |  | 
Cc1sc(NC(=O)Cc2cccc(OCCC(C)CCNc3ccc4c(c3)C(=O)N(C3CCC(=O)NC3=O)C4=O)c2)nc1-c1ccc2c(c1)CCN2C(=O)C1CC1 (stereo not drawn) [compound 50, N-(4-(1-(cyclopropanecarbonyl)indolin-5-yl)-5-methylthiazol-2-yl)-2-(3-((5-((2-(2,6-dioxopiperidin-3-yl)-1,3-dioxoisoindolin-5-yl)amino)-3-methylpentyl)oxy)phenyl)acetamide] |  | 300 to 3000 | 300 to 3000
Cc1ncccc1C(=O)N1CCc2cc(-c3nc(NC(=O)Cc4cccc(OCCCCCNc5cccc6c5C(=O)N(C5CCC(=O)NC5=O)C6=O)c4)sc3C)ccc21 (stereo not drawn) [compound 83, 2-(3-((5-((2-(2,6-dioxopiperidin-3-yl)-1,3-dioxoisoindolin-4-yl)amino)pentyl)oxy)phenyl)-N-(5-methyl-4-(1-(2-methylnicotinoyl)indolin-5-yl)thiazol-2-yl)acetamide] | 0.045 |  | 
Cc1sc(NC(=O)Cc2cccc(OCCC(C)CCNc3cccc4c3C(=O)N(C3CCC(=O)NC3=O)C4=O)c2)nc1-c1ccc2c(c1)CCN2C(=O)C1CC1 (stereo not drawn) [Cpd. No. 41, N-(4-(1-(cyclopropanecarbonyl)indolin-5-yl)-5-methylthiazol-2-yl)-2-(3-((5-((2-(2,6-dioxopiperidin-3-yl)-1,3-dioxoisoindolin-4-yl)amino)-3-methylpentyl)oxy)phenyl)acetamide] |  | < 300 | < 300
Cc1sc(NC(=O)Cc2cccc(OCCC(C)(C)CCOc3cccc4c3C(=O)N(C3CCC(=O)NC3=O)C4=O)c2)nc1-c1ccc2c(c1)CCN2C(=O)C1CC1 (stereo not drawn) [Cpd. No. 48, N-(4-(1-(cyclopropanecarbonyl)indolin-5-yl)-5-methylthiazol-2-yl)-2-(3-((5-((2-(2,6-dioxopiperidin-3-yl)-1,3-dioxoisoindolin-4-yl)oxy)-3,3-dimethylpentyl)oxy)phenyl)acetamide] |  | > 3000 | 300 to 3000
Cc1ncccc1C(=O)N1CCc2cc(-c3nc(NC(=O)Cc4cccc(OCCOCCNc5cccc6c5C(=O)N(C5CCC(=O)NC5=O)C6=O)c4)sc3C)ccc21 (stereo not drawn) [Cpd. No. 76, 2-(3-(2-(2-((2-(2,6-dioxopiperidin-3-yl)-1,3-dioxoisoindolin-4-yl)amino)ethoxy)ethoxy)phenyl)-N-(5-methyl-4-(1-(2-methylnicotinoyl)indolin-5-yl)thiazol-2-yl)acetamide] | 0.011 | > 3000 | < 300
Cc1ccncc1C(=O)N1CCc2cc(-c3nc(NC(=O)Cc4cccc(OCCCCCNc5cccc6c5C(=O)N(C5CCC(=O)NC5=O)C6=O)c4)sc3C)ccc21 (stereo not drawn) [compound 85, 2-(3-((5-((2-(2,6-dioxopiperidin-3-yl)-1,3-dioxoisoindolin-4-yl)amino)pentyl)oxy)phenyl)-N-(5-methyl-4-(1-(4-methylnicotinoyl)indolin-5-yl)thiazol-2-yl)acetamide] | 0.047 |  | 
Cc1cccnc1C(=O)N1CCc2cc(-c3nc(NC(=O)Cc4cccc(OCCOCCNc5cccc6c5C(=O)N(C5CCC(=O)NC5=O)C6=O)c4)sc3C)ccc21 (stereo not drawn) [Cpd. No. 79, 2-(3-(2-(2-((2-(2,6-dioxopiperidin-3-yl)-1,3-dioxoisoindolin-4-yl)amino)ethoxy)ethoxy)phenyl)-N-(5-methyl-4-(1-(3-methylpicolinoyl)indolin-5-yl)thiazol-2-yl)acetamide] | 0.043 | > 3000 | < 300
Cc1ccncc1C(=O)N1CCc2cc(-c3nc(NC(=O)Cc4cccc(OCCOCCNc5cccc6c5C(=O)N(C5CCC(=O)NC5=O)C6=O)c4)sc3C)ccc21 (stereo not drawn) [Cpd. No. 78, 2-(3-(2-(2-((2-(2,6-dioxopiperidin-3-yl)-1,3-dioxoisoindolin-4-yl)amino)ethoxy)ethoxy)phenyl)-N-(5-methyl-4-(1-(4-methylnicotinoyl)indolin-5-yl)thiazol-2-yl)acetamide] | 0.0059 | > 3000 | < 300
Cc1sc(NC(=O)Cc2cccc(OCCC(C)CCOc3cccc4c3C(=O)N(C3CCC(=O)NC3=O)C4=O)c2)nc1-c1ccc2c(c1)CCN2C(=O)C1CC1 (stereo not drawn) [Cpd. No. 47, N-(4-(1-(cyclopropanecarbonyl)indolin-5-yl)-5-methylthiazol-2-yl)-2-(3-((5-((2-(2,6-dioxopiperidin-3-yl)-1,3-dioxoisoindolin-4-yl)oxy)-3-methylpentyl)oxy)phenyl)acetamide] |  | 300 to 3000 | 300 to 3000
Cc1cccnc1C(=O)N1CCc2cc(-c3nc(NC(=O)Cc4cccc(OCCCCCNc5cccc6c5C(=O)N(C5CCC(=O)NC5=O)C6=O)c4)sc3C)ccc21 (stereo not drawn) [compound 86, 2-(3-((5-((2-(2,6-dioxopiperidin-3-yl)-1,3-dioxoisoindolin-4-yl)amino)pentyl)oxy)phenyl)-N-(5-methyl-4-(1-(3-methylpicolinoyl)indolin-5-yl)thiazol-2-yl)acetamide] | 0.072 |  | 
Cc1sc(NC(=O)Cc2cccc(OCCC(C)(C)CCNc3cccc4c3C(=O)N(C3CCC(=O)NC3=O)C4=O)c2)nc1-c1ccc2c(c1)CCN2C(=O)C1CC1 (stereo not drawn) [Cpd. No. 42, N-(4-(1-(cyclopropanecarbonyl)indolin-5-yl)-5-methylthiazol-2-yl)-2-(3-((5-((2-(2,6-dioxopiperidin-3-yl)-1,3-dioxoisoindolin-4-yl)amino)-3,3-dimethylpentyl)oxy)phenyl)acetamide] |  | > 3000 | 
Cc1sc(NC(=O)Cc2cccc(OCCN(C)CCNc3cccc4c3C(=O)N(C3CCC(=O)NC3=O)C4=O)c2)nc1-c1ccc2c(c1)CCN2C(=O)C1CC1 (stereo not drawn) [Cpd. No. 44, N-(4-(1-(cyclopropanecarbonyl)indolin-5-yl)-5-methylthiazol-2-yl)-2-(3-(2-((2-((2-(2,6-dioxopiperidin-3-yl)-1,3-dioxoisoindolin-4-yl)amino)ethyl)(methyl)amino)ethoxy)phenyl)acetamide] |  | < 300 | < 300
Cc1sc(NC(=O)Cc2cccc(OCCC(C)(C)CCNc3ccc4c(c3)C(=O)N(C3CCC(=O)NC3=O)C4=O)c2)nc1-c1ccc2c(c1)CCN2C(=O)C1CC1 (stereo not drawn) [Cpd. No. 51, N-(4-(1-(cyclopropanecarbonyl)indolin-5-yl)-5-methylthiazol-2-yl)-2-(3-((5-((2-(2,6-dioxopiperidin-3-yl)-1,3-dioxoisoindolin-5-yl)amino)-3,3-dimethylpentyl)oxy)phenyl)acetamide] |  | < 300 | < 300
Cc1sc(NC(=O)Cc2cccc(OCCOCCNc3cccc4c3C(=O)N(C3CCC(=O)NC3=O)C4)c2)nc1-c1ccc2c(c1)CCN2C(=O)C1CC1 (stereo not drawn) [Cpd. No. 81, N-(4-(1-(cyclopropanecarbonyl)indolin-5-yl)-5-methylthiazol-2-yl)-2-(3-(2-(2-((2-(2,6-dioxopiperidin-3-yl)-3-oxoisoindolin-4-yl)amino)ethoxy)ethoxy)phenyl) acetamide] | > 30 |  | 
